Results reported in PMC3349722, “Prediction of Drug-Target Interactions and Drug Repositioning via Network-Based Inference” (PLoS Computational Biology, 2012).
pEC50, pIC50: −log10 of the molar value. Where a name gives a salt, the structure may show the parent alone. Read-outs that look alike come from different tables or passages of the source.

Tests used:
ERα = target: T1, ERα (Homo sapiens, UniProt P03372); assay: Yeast two-hybrid system-based assay (ERα LBD/SRC1, α-galactosidase), agonist and antagonist mode; assay type: cell-based; details: for Inhibitive ratio % (10 μM), ERα: antagonist assay with 1 nM E2; for Agonistic activities (10 μM), ERα: DMSO = 1; for pEC50: agonist testing
T1 sequence (P03372 301-553): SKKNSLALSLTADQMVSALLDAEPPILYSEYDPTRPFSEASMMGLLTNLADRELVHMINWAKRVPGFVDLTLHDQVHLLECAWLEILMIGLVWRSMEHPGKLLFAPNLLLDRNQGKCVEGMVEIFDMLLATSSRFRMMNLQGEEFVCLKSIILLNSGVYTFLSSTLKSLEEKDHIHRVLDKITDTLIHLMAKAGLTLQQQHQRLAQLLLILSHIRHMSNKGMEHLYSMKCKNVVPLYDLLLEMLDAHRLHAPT

human recombinant DPP-IV = target: T2, human recombinant DPP-IV (Homo sapiens, UniProt P27487); assay: Dipeptidyl peptidase-IV inhibition assay (DPP-IV Drug Discovery Kit, fluorimetric); assay type: biochemical; details: for Inhibition Ratio (%) to DPP-IV: test concentration not given
T2 construct: purchased Biomol
Procedure: The inhibitory effects of compounds on human recombinant DPP-IV was determined using a DPP-IV Drug Discovery Kit (Biomol, USA) according to the manufacturer's instructions. The activity of DPP-IV was detected in a Synergy™ 2 Multi-Mode Microplate Reader (BioTek) at an excitation wavelength of 380 nm and an emission wavelength of 460 nm. […] IC50 values were determined using the GraphPad Prism 4 software with three independent determinations.
Table S4. The inhibitive activities profiles of nine approved drugs for dipeptidyl peptidase -IV
(DPP -IV ) enzyme inhibition assay. The inhibitory effects of compounds on human recombinant
DPP4 was determined using a DPP -IV Drug Discovery Kit (Biomol, USA) according to the
manufacturer ’s instructions. The DPP-IV Drug Discovery Kit is a complete assay system designed
to screen DPP 4 small molecule inhibitors. The fluorimetric assay is based on the cleavage of
7- a mino -4-methylcoumarin (AMC) moiety from peptide substrate (H-Gly-P ro-AMC), which
increases its fluorescence intensity at 460 nm. Compounds dilutions were prepared from stock in
DMSO and diluted with assay buffer for inhibition assay. A 40 μL solution of DPP -IV enzyme in
assa y buffer was incubated with 10μ L of various concentrations of test compoundsolutions for 10
min at room temperature. The reaction was initiated b y the addition of 50 μL of H-Gly-P ro- AMC
with a final concentration of 5 μM. The activity of DPP4 was detected in a Synergy™ 2
Multi-Mode Microplate Reader (BioTek) at an excitation wavelength of 380 nm and an emission
wavelength of 460 nm. […] IC 50 values were
determined by using the G raphP ad Prism 4 software with three independent determinations.

ERβ = ERβ (Homo sapiens, UniProt Q92731); assay: Yeast two-hybrid system-based assay (ERβ LBD/SRC1, α-galactosidase), agonist and antagonist mode; assay type: cell-based; details: for Inhibitive Ratio% (10 μM), ERβ: antagonist assay with 1 nM E2; for pIC50: read-out: IC50 on ERβ (antagonistic activity)
ERα and ERβ = assay: Yeast two-hybrid system-based assay, summary statements on ER (subtype not separated)
MDA-MB-231 cells = assay: MTT assay of cell proliferation; assay type: cell-based; details: Homo sapiens, MDA-MB-231 breast cancer cell line, 24 h, read-out: Antiproliferative activity IC50
Procedure: Cell proliferation was quantified by MTT assay. MDA-MB-231 cells were seeded at a density of 1.5×10^4 in a 96-well plate with DMEM/F12 supplemented with 10% charcoal stripped FBS without phenol red, and then incubated with the tested compounds in humidified air containing 5% CO2 at 37°C. After incubation for 24 h, 20 µL of 5 mg/mL MTT was added and incubated for another 4 h. Then the converted dye was dissolved in 100 µL of DMSO and the absorbance was measured at 570 nm.

T2 sequence (P27487 whole entry): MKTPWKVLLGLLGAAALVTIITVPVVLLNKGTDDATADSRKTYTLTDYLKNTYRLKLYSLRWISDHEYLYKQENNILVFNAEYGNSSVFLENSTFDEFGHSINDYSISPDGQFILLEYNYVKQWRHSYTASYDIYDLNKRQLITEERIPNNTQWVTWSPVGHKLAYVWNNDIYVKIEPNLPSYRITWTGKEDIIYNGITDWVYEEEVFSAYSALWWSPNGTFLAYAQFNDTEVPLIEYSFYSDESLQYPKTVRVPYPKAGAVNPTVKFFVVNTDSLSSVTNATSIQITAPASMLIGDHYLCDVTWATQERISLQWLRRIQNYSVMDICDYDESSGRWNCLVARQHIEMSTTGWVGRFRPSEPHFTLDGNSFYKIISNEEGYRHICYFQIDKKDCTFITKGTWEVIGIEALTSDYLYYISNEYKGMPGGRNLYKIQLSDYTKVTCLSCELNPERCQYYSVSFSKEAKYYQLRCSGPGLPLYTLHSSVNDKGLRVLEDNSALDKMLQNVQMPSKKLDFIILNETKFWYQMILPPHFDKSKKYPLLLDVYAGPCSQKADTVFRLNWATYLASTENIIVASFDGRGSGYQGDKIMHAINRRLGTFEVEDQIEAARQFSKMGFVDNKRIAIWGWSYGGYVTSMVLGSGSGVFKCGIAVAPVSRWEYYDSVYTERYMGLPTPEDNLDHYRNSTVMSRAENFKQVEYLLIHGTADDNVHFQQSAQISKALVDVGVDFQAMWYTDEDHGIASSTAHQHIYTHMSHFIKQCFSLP
Chain of ERβ (Q92731 248-510): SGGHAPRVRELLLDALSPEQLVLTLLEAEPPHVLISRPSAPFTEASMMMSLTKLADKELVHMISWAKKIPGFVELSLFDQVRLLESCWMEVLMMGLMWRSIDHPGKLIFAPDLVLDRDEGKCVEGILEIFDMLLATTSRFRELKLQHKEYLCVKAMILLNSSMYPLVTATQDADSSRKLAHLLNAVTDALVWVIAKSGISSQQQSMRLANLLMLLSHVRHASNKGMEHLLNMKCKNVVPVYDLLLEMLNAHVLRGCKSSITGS

Compound | Agonistic activities (10 μM), ERα (ERα) | Inhibitive Ratio% (10 μM), ERβ (ERβ) [%] | Agonistic activities (10 μM), ERβ (ERβ; DMSO = 1) | also measured
O=c1[nH]c2ccccc2n1C1CCN(CCCC(c2ccc(F)cc2)c2ccc(F)cc2)CC1 [Pimozide] | 0.955 |  |  | Inhibitive ratio % (10 μM), ERα (ERα): 4.58%
CC(C)(O)c1ccccc1CC[C@@H](SCC1(CC(=O)O)CC1)c1cccc(/C=C/c2ccc3ccc(Cl)cc3n2)c1 [Montelukast] |  |  |  | Inhibition Ratio (%) to DPP-IV (human recombinant DPP-IV): 49.7%; pIC50 (human recombinant DPP-IV; three independent determinations): 5.01
CCC(C)n1ncn(-c2ccc(N3CCN(c4ccc(OCC5COC(Cn6cncn6)(c6ccc(Cl)cc6Cl)O5)cc4)CC3)cc2)c1=O (stereo not shown) [Itraconazole] | 4.132 | 51.99 | 1.890 | Inhibitive ratio % (10 μM), ERα (ERα): 8.19%; pEC50 (ERα; REC50 on ERα (concentration showing 50% of the maximum agonistic activity of E2), relative to E2): 6.49; pEC50 (ERα; read-out: EC50 on ERα (agonistic activity)): 6.70; pIC50 (ERβ; antagonist assay): 6.55; IC50 or EC50 values on ER (ERα and ERβ): less than 1 μM; IC50 or EC50 values on ER (ERα and ERβ; listed as itraconazole): less than 10 μM
CC(=O)N1CCN(c2ccc(OCC3COC(Cn4ccnc4)(c4ccc(Cl)cc4Cl)O3)cc2)CC1 (stereo not shown) [Ketoconazole] |  |  | 0.853 | pIC50 (ERβ): 6.10; pIC50 (MDA-MB-231 cells): 5.05; IC50 or EC50 values on ER (ERα and ERβ): less than 1 μM; IC50 or EC50 values on ER (ERα and ERβ; listed as ketoconazole): less than 10 μM
CC[C@@H]1C(=O)OC[C@@H]1Cc1cncn1C.Cl [Pilocarpine HCl] | 1.008 |  |  | 
17-hydroxyprogesterone |  | 13.01 | 0.961 | 
CS(=O)(=O)CCNCc1ccc(-c2ccc3ncnc(Nc4ccc(OCc5cccc(F)c5)c(Cl)c4)c3c2)o1 [Lapatinib] | 0.995 |  |  | Inhibition Ratio (%) to DPP-IV (human recombinant DPP-IV): 39.64%; Inhibitive ratio % (10 μM), ERα (ERα): 14.01%
CC[C@H](C)C(=O)O[C@H]1C[C@@H](C)C=C2C=C[C@H](C)[C@H](CC[C@@H]3C[C@@H](O)CC(=O)O3)[C@H]21 [Lovastatin] |  |  |  | Inhibition Ratio (%) to DPP-IV (human recombinant DPP-IV): 9.49%
NS(=O)(=O)Cc1noc2ccccc12 [Zonisamide] |  |  | 1.029 | 
CN(C)CCCN1c2ccccc2Sc2ccc(Cl)cc21 [Chlorpromazine HCl] |  | 3.11 | 0.981 | 
CC(C)C(=O)Nc1ccc([N+](=O)[O-])c(C(F)(F)F)c1 [Flutamide] |  | 2.83 | 0.949 | 
CN(C)C(=O)C(CCN1CCC(O)(c2ccc(Cl)cc2)CC1)(c1ccccc1)c1ccccc1 [Loperamide] | 0.934 | 0 | 0.910 | Inhibitive ratio % (10 μM), ERα (ERα): 6.18%
Cc1ccc(C)c(OCCCC(C)(C)C(=O)O)c1 [Gemfibrozil] |  |  |  | Inhibition Ratio (%) to DPP-IV (human recombinant DPP-IV): 17.35%
CCc1ccc(CCOc2ccc(CC3SC(=O)NC3=O)cc2)nc1 (stereo not shown) [Pioglitazone] |  |  |  | Inhibition Ratio (%) to DPP-IV (human recombinant DPP-IV): 18.63%
CCC1(c2ccc(N)cc2)CCC(=O)NC1=O (racemic) [Dl-aminoglutethimide] | 0.956 |  |  | 
CC(C)(C#N)c1cc(Cn2cncn2)cc(C(C)(C)C#N)c1 [Anastrozole] |  |  | 1.011 | 
COC(=O)C1=C(C)NC(C)=C(C(=O)OCCN(C)Cc2ccccc2)C1c1cccc([N+](=O)[O-])c1 (stereo not shown) [Nicardipine] | 0.962 |  |  | Inhibition Ratio (%) to DPP-IV (human recombinant DPP-IV): 21.24%; Inhibitive ratio % (10 μM), ERα (ERα): 15.21%
N#Cc1ccc(C(c2ccc(C#N)cc2)n2cncn2)cc1 [Letrozole] |  | 0 | 0.846 | 
C=CCN1CC[C@]23c4c5ccc(O)c4O[C@H]2C(=O)CC[C@@]3(O)[C@H]1C5 [Naloxone HCl] |  | 0 | 1.051 | 
Nc1nc2c(ncn2CCC(CO)CO)c(=O)[nH]1 [Penciclovir] |  | 0 | 0.947 | 
N[C@@H]1C[C@H]1c1ccccc1 (racemic) [Tranylcypromine] | 0.988 | 0 | 0.965 | Inhibitive ratio % (10 μM), ERα (ERα): 4.3%
NC(=O)N1c2ccccc2C=Cc2ccccc21 [Carbamazepine] |  |  |  | Inhibition Ratio (%) to DPP-IV (human recombinant DPP-IV): 19.67%
CN/C(=N/CCSCc1nc[nH]c1C)NC#N [Cimetidine] | 1.018 |  |  | Inhibitive ratio % (10 μM), ERα (ERα): 2.4%
CC#C[C@]1(O)CC[C@H]2[C@@H]3CCC4=CC(=O)CCC4=C3[C@@H](c3ccc(N(C)C)cc3)C[C@@]21C [Mifepristone] | 1.463 | 27.16 | 1.080 | Inhibitive ratio % (10 μM), ERα (ERα): 0%
CC(=O)OCC(CCn1cnc2cnc(N)nc21)COC(C)=O [Famciclovir] |  | 0 | 0.894 | 
C[C@]12CC[C@@H]3c4ccc(O)cc4CC[C@H]3[C@@H]1CC[C@@H]2O [E2, estradiol] |  |  |  | Agonistic activities, ERβ, E2 control (ERβ; 1 nM, DMSO = 1): 5.77
O=C(O)Cc1ccccc1Nc1c(Cl)cccc1Cl [Diclofenac] |  |  | 0.846 | pIC50 (ERβ): 5.63; IC50 or EC50 values on ER (ERα and ERβ): less than 10 μM
COc1ccc2[nH]cc(CCNC(C)=O)c2c1 [Melatonin] |  | 0 | 0.914 | 
CCC(C)(C)C(=O)O[C@H]1C[C@@H](C)C=C2C=C[C@H](C)[C@H](CC[C@@H]3C[C@@H](O)CC(=O)O3)[C@H]21 [Simvastatin] |  |  |  | pIC50 (MDA-MB-231 cells): 5.83
